From patent US10307413B2, “Tetrahydro- and dihydro-isoquinoline PRMT5 inhibitors and uses thereof” (Epizyme, Inc., priority 2013, dated 2019)
Like-named read-outs stand apart in the source and are kept apart here.

How the values were obtained:
[1] = molecular target: PRMT5/MEP50 (Homo sapiens (Human), UniProt O14744); experiment: PRMT5 Biochemical Assay (PRMT5/MEP50 enzyme assay on peptide substrate, 3H-SAM Flashplate)
From the text: S-adenosylmethionine (SAM), S-adenosylhomocysteine (SAH), bicine, KCl, Tween20, dimethylsulfoxide (DMSO), bovine skin gelatin (BSG), and Tris(2-carboxyethyl)phosphine hydrochloride solution (TCEP) were purchased from Sigma-Aldrich at the highest level of purity possible. ^3H-SAM was purchase from American Radiolabeled Chemicals with a specific activity of 80 Ci/mmol. 384-well streptavidin Flashplates were purchased from PerkinElmer.
Peptide representative of human histone H4 residues 1-15 was synthesized with a C-terminal linker-affinity tag motif and a C-terminal amide cap by 21st Century Biochemicals.
The amplified genes were sublconed into pENTR/D/TEV (Life Technologies) and subsequently transferred by Gateway™ attL×attR recombination to pDEST8 baculovirus expression vector (Life Technologies).
Protein over-expression was accomplished by infecting exponentially growing Spodoptera frugiperda (SF9) cell culture at 1.2×10^6 cell/ml with a 5000 fold dilution of BIIC stock. Infections were carried out at 27° C. for 72 hours, harvested by centrifugation, and stored at −80° C. for purification.
Flag-PRMT5/6His-MeP50 was eluted with 300 mM Imidazole in the same buffer.
General Procedure for PRMT5/MEP50 Enzyme Assays on Peptide Substrates.
The assays were all performed in a buffer consisting of 20 mM Bicine (pH=7.6), 1 mM TCEP, 0.005% BSG, and 0.002% Tween20, prepared on the day of use. […] DMSO (1 ul) was added to Columns 11, 12, 23, 24, rows A-H for the maximum signal control and 1 ul of SAH, a known product and inhibitor of PRMT5/MEP50, was added to columns 11, 12, 23, 24, rows I-P for the minimum signal control. A cocktail (40 ul) containing the PRMT5/MEP50 enzyme and the peptide was added by Multidrop Combi (Thermo-Fisher). The compounds were allowed to incubate with PRMT5/MEP50 for 30 min at 25 degrees Celsius, then a cocktail (10 ul) containing ^3H-SAM was added to initiate the reaction (final volume=51 ul). […] The assays were stopped by the addition of non-radioactive SAM (10 ul) to a final concentration of 600 uM, which dilutes the ^3H-SAM to a level where its incorporation into the peptide substrate is no longer detectable. 50 ul of the reaction in the 384-well polypropylene plate was then transferred to a 384-well Flashplate and the biotinylated peptides were allowed to bind to the streptavidin surface for at least 1 hour before being washed three times with 0.1% Tween20 in a Biotek ELx405 plate washer. The plates were then read in a PerkinElmer TopCount plate reader to measure the quantity of ^3H-labeled peptide bound to the Flashplate surface, measured as disintegrations per minute (dpm) or alternatively, referred to as counts per minute (cpm).
[formula] [formula] Where dpm=disintegrations per minute, cmpd=signal in assay well, and min and max are the respective minimum and maximum signal controls.
[formula] [formula] Where top and bottom are the normally allowed to float, but may be fixed at 100 or 0 respectively in a 3-parameter fit. The Hill Coefficient normally allowed to float but may also be fixed at 1 in a 3-parameter fit. Y is the % inhibition and X is the compound concentration.

[2] = system: symmetric di-methyl arginine in Z-138 cells; experiment: Z-138 Methylation Assay (In Cell Western for symmetric di-methyl arginine and DNA content); type: cell-based; details: Homo sapiens, read-out: ICW EC50
Outline: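 In-cell western: symmetric di-methyl arginine signal ratioed to DRAQ5 DNA content after 96 h compound exposure of Z-138 cells seeded at 50,000 cells/mL.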

[3] = system: Z-138 cell line; experiment: Z-138 Proliferation Assay (Cell Titer Glo, 5 days); type: cell-based; details: Homo sapiens, 120 h, Z-138 cells, 5 days, read-out: Proliferation EC50
Outline: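 Viability via CellTiter-Glo luminescence (ATP) after 5-day incubation at 37 °C, 5% CO2. Compounds tested in triplicate, nine 3-fold steps, highest final concentration 20 μM in 0.2% DMSO; 50% inhibitory concentration by 4-parameter fit of normalized curves.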

PRMT5/MEP50, sequence (O14744 other isoform, or with tags, fused parts or gaps): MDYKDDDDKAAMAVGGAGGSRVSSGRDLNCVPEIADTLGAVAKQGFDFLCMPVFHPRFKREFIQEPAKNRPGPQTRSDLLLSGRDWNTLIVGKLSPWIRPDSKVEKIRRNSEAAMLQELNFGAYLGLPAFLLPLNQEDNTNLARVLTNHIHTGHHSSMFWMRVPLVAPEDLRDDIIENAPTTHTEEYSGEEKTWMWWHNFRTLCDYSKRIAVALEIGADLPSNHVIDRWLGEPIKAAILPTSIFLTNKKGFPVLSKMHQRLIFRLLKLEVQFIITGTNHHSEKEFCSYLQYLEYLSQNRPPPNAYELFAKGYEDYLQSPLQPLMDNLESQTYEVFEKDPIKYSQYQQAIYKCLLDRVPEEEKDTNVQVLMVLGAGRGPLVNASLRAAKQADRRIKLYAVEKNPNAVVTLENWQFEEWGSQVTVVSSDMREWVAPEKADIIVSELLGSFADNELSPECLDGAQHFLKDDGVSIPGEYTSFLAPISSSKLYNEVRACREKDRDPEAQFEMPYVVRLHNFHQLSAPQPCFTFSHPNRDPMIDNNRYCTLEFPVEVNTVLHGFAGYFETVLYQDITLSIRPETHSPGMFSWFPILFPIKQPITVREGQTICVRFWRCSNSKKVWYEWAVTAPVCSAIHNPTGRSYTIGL
PRMT5/MEP50, sequence (Q9BQA1 other isoform, or with tags, fused parts or gaps partner): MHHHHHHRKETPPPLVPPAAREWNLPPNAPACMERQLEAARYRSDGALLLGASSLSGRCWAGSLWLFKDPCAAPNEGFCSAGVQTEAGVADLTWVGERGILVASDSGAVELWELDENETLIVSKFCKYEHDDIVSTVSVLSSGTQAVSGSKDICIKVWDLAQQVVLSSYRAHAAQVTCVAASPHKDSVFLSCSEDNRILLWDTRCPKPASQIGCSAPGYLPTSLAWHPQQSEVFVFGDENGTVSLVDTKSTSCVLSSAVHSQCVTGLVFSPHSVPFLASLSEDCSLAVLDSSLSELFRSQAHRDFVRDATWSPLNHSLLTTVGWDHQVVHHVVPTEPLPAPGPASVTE

Structure (SMILES) | IC50 ([1]; PRMT5 biochemical assay) [nM] | EC50 ([2]; In Cell Western methylation) [nM] | EC50 ([3]; Cell Titer Glo) [nM] | IC50 [1] [nM] | EC50 [2] [nM] | EC50 [3] [nM]
CC(C)(C)C(=O)N1CCC(Nc2cc(C(=O)NC[C@H](O)CN3CCc4ccccc4C3)ncn2)CC1 [Compound 410] | < 100 | < 100 | < 100 | – | – | –
CNCCOc1cc(C(=O)NC[C@H](O)CN2CCc3ccccc3C2)ccn1 [Compound 420] | < 100 | < 100 | 1000 to 10000 | – | – | –
CC(=O)N1CCC(Nc2cc(C(=O)NC[C@H](O)CN3CCc4ccccc4C3)nc(N(C)C)c2)CC1 [Compound 685] | < 100 | < 100 | 101 to 1000 | – | – | –
CN(C)c1nc(NC2COC2)cc(C(=O)NC[C@H](O)CN2CCc3ccccc3C2)n1 [Compound 494] | < 100 | < 100 | 101 to 1000 | – | – | –
CN1CCN(c2cc(C(=O)NC[C@H](O)CN3CCc4ccccc4C3)cc(NC3CCC3)n2)CC1 [Compound 413] | < 100 | < 100 | < 100 | – | – | –
CC(=O)N1CCC(Nc2ccnc(C(=O)NC[C@H](O)CN3CCc4ccccc4C3)c2)CC1 [Compound 551] | < 100 | < 100 | < 100 | – | – | –
CCCC(=O)N1CC(Nc2cc(C(=O)NC[C@H](O)CN3CCc4ccccc4C3)ncn2)C1 [Compound 415] | < 100 | < 100 | < 100 | – | – | –
COC(CNC(=O)c1ccnc(NC2CCN(C(C)=O)CC2)c1)CN1CCc2ccccc2C1 (stereo not drawn) [Compound 691] | < 100 | < 100 | 1000 to 10000 | – | – | –
Cc1ccc2c(c1)CN(C[C@@H](O)CNC(=O)c1cc(NC3COC3)ncn1)CC2 [Compound 666] | 101 to 1000 | 101 to 1000 | > 5000 | – | – | –
CC(=O)N1CCC(Nc2cc(C(=O)NC[C@H](O)CN3CCc4ccccc4C3)cc(N3CCN(C)CC3)n2)CC1 [Compound 612] | < 100 | < 100 | < 100 | – | – | –
O=C(NC[C@H](O)CN1CCc2ccccc2C1)c1cc(NC2COC2)nc(N2CCOCC2)n1 [Compound 395] | – | – | – | < 100 | < 100 | < 100
CC(C)C(=O)N1CCC(Nc2cc(C(=O)NC[C@H](O)CN3CCc4ccccc4C3)ccn2)CC1 [Compound 469] | < 100 | < 100 | < 100 | – | – | –
CCN1CCN(c2nc(NC3COC3)cc(C(=O)NC[C@H](O)CN3CCc4ccccc4C3)n2)CC1 [Compound 477] | < 100 | < 100 | < 100 | – | – | –
CN(C)[C@H]1C[C@H](Nc2cc(C(=O)NC[C@H](O)CN3CCc4ccccc4C3)ncn2)C1 [Compound 376] | – | – | – | < 100 | < 100 | 1000 to 10000
Cc1cnc(NC2CCNC2)cc1C(=O)NC[C@H](O)CN1CCc2ccccc2C1 (stereo partly drawn) [Compound 400] | < 100 | > 1000 | > 20000 | – | – | –
O=C(NC[C@H](O)CN1CCc2ccccc2C1)c1cc(NC2COC2)nc(N2CCCC2)n1 [Compound 451] | < 100 | < 100 | 101 to 1000 | – | – | –
COCCN(C)c1nc(NC2COC2)cc(C(=O)NC[C@H](O)CN2CCc3ccccc3C2)n1 [Compound 460] | < 100 | < 100 | < 100 | – | – | –
CC(=O)N1CCC(Nc2cc(C(=O)NCCCN3CCc4ccccc4C3)ncn2)CC1 [Compound 653] | < 100 | < 100 | 1000 to 10000 | – | – | –
CN(C)CCOc1ccc2cc(C(=O)NC[C@H](O)CN3CCc4ccccc4C3)ccc2c1 [Compound 370] | – | – | – | < 100 | < 100 | 1000 to 10000
CC(=O)Nc1ccc(C(=O)NCC(O)CN2CCc3ccccc3C2)cc1 (stereo not drawn) [Compound 23, 4-acetamido-N-(3-(3,4-dihydroisoquinolin-2(1H)-yl)-2-hydroxypropyl)benzamide] | – | – | – | 101 to 1000 | 101 to 1000 | > 20000
